Assay results from patent publication US9624182B2, “Compounds as lysophosphatidic acid receptor antagonists” (Amira Pharmaceuticals, Inc., priority 2009, dated 2017).

Target: T1, human LPA1 (Homo sapiens, UniProt Q92633)
T1 construct: the full-length cDNA for human LPA1 was obtained by PCR of the reverse transcription reaction; expressed in transfected cells
Test: LPA1 calcium flux assay
Type: cell-based
Conditions: CHO cells expressing human LPA1, stimulated with 10 nM LPA; read-out: HLPA1 Ca Flux IC50
In short: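 CHO cells stably expressing cloned human LPA1, serum-starved overnight, loaded with Calcium 4 dye 1 h at 37 °C in HBSS/20 mM Hepes with 0.3% fatty-acid-free HSA. Compounds preincubated 30 min at room temperature, then cells stimulated with 10 nM LPA; intracellular Ca2+ read by fluorescence. IC50 from titration curves.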

T1 sequence (Q92633 whole entry): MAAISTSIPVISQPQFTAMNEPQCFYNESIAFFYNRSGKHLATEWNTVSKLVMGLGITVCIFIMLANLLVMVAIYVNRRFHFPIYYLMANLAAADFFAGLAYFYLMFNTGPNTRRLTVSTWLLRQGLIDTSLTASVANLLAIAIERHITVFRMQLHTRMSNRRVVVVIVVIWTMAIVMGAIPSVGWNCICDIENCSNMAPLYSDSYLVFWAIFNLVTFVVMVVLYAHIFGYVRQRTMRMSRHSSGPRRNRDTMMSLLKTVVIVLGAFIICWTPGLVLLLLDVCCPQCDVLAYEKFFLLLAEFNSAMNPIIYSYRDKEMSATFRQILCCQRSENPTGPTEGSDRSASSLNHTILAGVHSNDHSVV

Row | Compound | IC50 [µM]
1 | Cc1noc(-c2ccc(-c3ccc(C4(C(=O)O)CC4)cc3)cc2)c1NC(CCc1ccccc1)c1ccccc1 (centres unmarked) [Compound 1-214, 1-{4′-[4-(1,3-Diphenyl-propylamino)-3-methyl-isoxazol-5-yl]-biphenyl-4-yl}-cyclopropanecarboxylic acid] | 0.3 to 1
2 | Cc1noc(-c2ccc(-c3ccc(C4CC4C(=O)O)cc3)cc2)c1[C@@H](O)COCc1ccccc1 (stereo partly drawn) [Compound 1-215, (cis)-2-{4′-[4-((R)-2-Benzyloxy-1-hydroxy-ethyl)-3-methyl-isoxazol-5-yl]-biphenyl-4-yl}-cyclopropanecarboxylic acid] | < 0.3
3 | COc1ccc(CC(C)Nc2c(C)noc2-c2ccc(-c3ccc(C4(CC(=O)O)CC4)cc3)cc2)cc1 (centres unmarked) [Compound 1-236, [1-(4′-{4-[2-(4-Methoxy-phenyl)-1-methyl-ethylamino]-3-methyl-isoxazol-5-yl}-biphenyl-4-yl)-cyclopropyl]-acetic acid] | 1 to 50
4 | COc1ccc(CC(C)Nc2c(C)noc2-c2ccc(-c3ccc(C4(C(=O)O)CC4)cc3)cc2)cc1 (centres unmarked) [Compound 1-237] | 1 to 50
5 | Cc1noc(-c2ccc(-c3ccc(CC(=O)O)cc3)cc2)c1C(O)COCc1cccc(C(F)(F)F)c1 (centres unmarked) [Compound 1-241, (4′-{4-[1-Hydroxy-2-(3-trifluoromethyl-benzyloxy)-ethyl]-3-methyl-isoxazol-5-yl}-biphenyl-4-yl)-acetic acid] | 1 to 50
6 | Cc1noc(-c2ccc(-c3ccc(CCC(=O)O)cc3)cc2)c1C(O)COCc1cccc(C(F)(F)F)c1 (centres unmarked) [Compound 1-242, 3-(4′-{4-[1-Hydroxy-2-(3-trifluoromethyl-benzyloxy)-ethyl]-3-methyl-isoxazol-5-yl}-biphenyl-4-yl)-propionic acid] | 0.3 to 1
7 | Cc1noc(-c2ccc(-c3ccc(C4(CC(=O)O)CC4)cc3)cc2)c1C(O)COCc1cccc(C(F)(F)F)c1 (centres unmarked) [Compound 1-244, [1-(4′-{4-[1-Hydroxy-2-(3-trifluoromethyl-benzyloxy)-ethyl]-3-methyl-isoxazol-5-yl}-biphenyl-4-yl)-cyclopropyl]-acetic acid] | < 0.3
8 | Cc1noc(-c2ccc(-c3ccc(C(=O)CCC(=O)O)cc3)cc2)c1C(O)CCCc1ccccc1 (centres unmarked) [Compound 1-245, 4-{4′-[4-(1-Hydroxy-4-phenyl-butyl)-3-methyl-isoxazol-5-yl]-biphenyl-4-yl}-4-oxo-butyric acid] | 1 to 50
9 | Cc1noc(-c2ccc(-c3ccc(C4(CC(=O)O)CC4)cc3)cc2)c1C(O)CC(C)(C)c1ccccc1 (centres unmarked) [Compound 1-246, (1-{4′-[4-(1-Hydroxy-3-methyl-3-phenyl-butyl)-3-methyl-isoxazol-5-yl]-biphenyl-4-yl}-cyclopropyl)-acetic acid] | 1 to 50
10 | COc1ccc(CCC(O)c2c(C)noc2-c2ccc(-c3ccc(C4(CC(=O)O)CC4)cc3)cc2)cc1 (centres unmarked) [Compound 1-247, [1-(4′-{4-[1-Hydroxy-3-(4-methoxy-phenyl)-propyl]-3-methyl-isoxazol-5-yl}-biphenyl-4-yl)-cyclopropyl]-acetic acid] | 1 to 50
11 | Cc1noc(-c2ccc(-c3ccc(C4(C(=O)O)CC4)cc3)cc2)c1C(O)C(=O)NCCc1ccccc1 (centres unmarked) [Compound 1-249, 1-{4′-[4-(Hydroxy-phenethylcarbamoyl-methyl)-3-methyl-isoxazol-5-yl]-biphenyl-4-yl}-cyclopropanecarboxylic acid] | < 0.3
12 | Cc1noc(-c2ccc(-c3ccc(CC4(C(=O)O)CC4)cc3)cc2)c1C(O)CCCc1ccccc1 (centres unmarked) [Compound 1-250, 1-{4′-[4-(1-Hydroxy-4-phenyl-butyl)-3-methyl-isoxazol-5-yl]-biphenyl-4-ylmethyl}-cyclopropanecarboxylic acid] | < 0.3
13 | Cc1noc(-c2ccc(-c3cccc(CC4(C(=O)O)CC4)c3)cc2)c1C(O)CCCc1ccccc1 (centres unmarked) [Compound 1-251, 1-{4′-[4-(1-Hydroxy-4-phenyl-butyl)-3-methyl-isoxazol-5-yl]-biphenyl-3-ylmethyl}-cyclopropanecarboxylic acid] | 0.3 to 1
14 | Cc1noc(-c2ccc(-c3ccc(C4(C(=O)O)CC4)cc3)cc2)c1C(O)C(=O)NCc1ccccc1 (centres unmarked) [Compound 1-252, 1-{4′-[4-(Benzylcarbamoyl-hydroxy-methyl)-3-methyl-isoxazol-5-yl]-biphenyl-4-yl}-cyclopropanecarboxylic acid] | < 0.3
15 | Cc1noc(-c2ccc(-c3ccc(C4(C(=O)O)CC4)cc3)cc2)c1C(O)C(=O)N[C@H](C)c1ccccc1 (stereo partly drawn) [Compound 1-253, 1-(4′-{4-[Hydroxy-((R)-1-phenyl-ethylcarbamoyl)-methyl]-3-methyl-isoxazol-5-yl}-biphenyl-4-yl)-cyclopropanecarboxylic acid] | < 0.3
16 | CC(=O)NC(CCCc1ccccc1)c1c(C)noc1-c1ccc(-c2ccc(C3(CC(=O)O)CC3)cc2)cc1 (centres unmarked) [Compound 1-256, (1-{4′-[4-(1-Acetylamino-4-phenyl-butyl)-3-methyl-isoxazol-5-yl]-biphenyl-4-yl}-cyclopropyl)-acetic acid] | 1 to 50
17 | Cc1noc(-c2ccc(-c3ccc(C4(C(=O)O)CC4)cc3)cc2)c1C(CCCc1ccccc1)NS(C)(=O)=O (centres unmarked) [Compound 1-257, 1-{4′-[4-(1-Methanesulfonylamino-4-phenyl-butyl)-3-methyl-isoxazol-5-yl]-biphenyl-4-yl}-cyclopropanecarboxylic acid] | 1 to 50
18 | Cc1noc(-c2ccc(-c3ccc(C4(C(=O)O)CC4)cc3)cc2)c1C(O)C(=O)N(C)Cc1ccccc1 (centres unmarked) [Compound 1-258, 1-(4′-{4-[(Benzyl-methyl-carbamoyl)-hydroxy-methyl]-3-methyl-isoxazol-5-yl}-biphenyl-4-yl)-cyclopropanecarboxylic acid] | < 0.3
19 | Cc1noc(-c2ccc(-c3ccc(C4(C(=O)O)CC4)cc3)cc2)c1/C=C/S(=O)(=O)Cc1ccccc1 [Compound 1-259, 1-{4′-[3-Methyl-4-((E)-2-phenylmethanesulfonyl-vinyl)-isoxazol-5-yl]-biphenyl-4-yl}-cyclopropanecarboxylic acid] | 1 to 50
20 | Cc1noc(-c2ccc(-c3ccc(C4(C(=O)O)CC4)cc3)cc2)c1C(O)CCCc1cccnc1 (centres unmarked) [Compound 1-260, 1-{4′-[4-(1-Hydroxy-4-pyridin-3-yl-butyl)-3-methyl-isoxazol-5-yl]-biphenyl-4-yl}-cyclopropanecarboxylic acid] | < 0.3

Further lines, results first:

Row | IC50 [µM] | Compound
21 | < 0.3 | Cc1noc(-c2ccc(-c3ccc(C4(CC(=O)O)CC4)cc3)cc2)c1NC(C)CCc1ccc(Cl)cc1 (centres unmarked) [Compound 1-218, [1-(4′-{4-[3-(4-Chloro-phenyl)-1-methyl-propylamino]-3-methyl-isoxazol-5-yl}-biphenyl-4-yl)-cyclopropyl]-acetic acid]
22 | < 0.3 | Cc1noc(-c2ccc(-c3ccc(C4(CC(=O)O)CC4)cc3)cc2)c1NC(C)CCc1c(F)cccc1Cl (centres unmarked) [Compound 1-219, [1-(4′-{4-[3-(2-Chloro-6-fluoro-phenyl)-1-methyl-propylamino]-3-methyl-isoxazol-5-yl}-biphenyl-4-yl)-cyclopropyl]-acetic acid]
23 | < 0.3 | Cc1noc(-c2ccc(-c3ccc(C4(CC(=O)O)CC4)cc3)cc2)c1NC(C)CCc1ccccc1Cl (centres unmarked) [Compound 1-222, [1-(4′-{4-[3-(2-Chloro-phenyl)-1-methyl-propylamino]-3-methyl-isoxazol-5-yl}-biphenyl-4-yl)-cyclopropyl]-acetic acid]
24 | 0.3 to 1 | C=CCCC(C)Nc1c(C)noc1-c1ccc(-c2ccc(C3(CC(=O)O)CC3)cc2)cc1 (centres unmarked) [Compound 1-226, (1-{4′-[3-Methyl-4-(1-methyl-pent-4-enylamino)-isoxazol-5-yl]-biphenyl-4-yl}-cyclopropyl)-acetic acid]
25 | < 0.3 | C=CCCC(C)Nc1c(C)noc1-c1ccc(-c2ccc(C3(C(=O)O)CC3)cc2)cc1 (centres unmarked) [Compound 1-227, 1-{4′-[3-Methyl-4-(1-methyl-pent-4-enylamino)-isoxazol-5-yl]-biphenyl-4-yl}-cyclopropanecarboxylic acid]
26 | 1 to 50 | C=CCCC(C)Nc1c(C)noc1-c1ccc(-c2ccccc2CC(=O)O)cc1 (centres unmarked) [Compound 1-228, {4′-[3-Methyl-4-(1-methyl-pent-4-enylamino)-isoxazol-5-yl]-biphenyl-2-yl}-acetic acid]
27 | > 50 | Cc1noc(-c2ccc(-c3ccc(C4(CC(=O)O)CC4)cc3)cc2)c1NC(C)CCCO (centres unmarked) [Compound 1-229, (1-{4′-[4-(4-Hydroxy-1-methyl-butylamino)-3-methyl-isoxazol-5-yl]-biphenyl-4-yl}-cyclopropyl)-acetic acid]
28 | 1 to 50 | Cc1noc(-c2ccc(-c3ccc(C4(C(=O)O)CC4)cc3)cc2)c1NC(C)CCCO (centres unmarked) [Compound 1-230, 1-{4′-[4-(4-Hydroxy-1-methyl-butylamino)-3-methyl-isoxazol-5-yl]-biphenyl-4-yl}-cyclopropanecarboxylic acid]
29 | 1 to 50 | Cc1noc(-c2ccc(-c3ccccc3CC(=O)O)cc2)c1NC(C)CCCO (centres unmarked) [Compound 1-231, {4′-[4-(4-Hydroxy-1-methyl-butylamino)-3-methyl-isoxazol-5-yl]-biphenyl-2-yl}-acetic acid]
30 | > 50 | Cc1noc(-c2ccc(-c3ccccc3CC(=O)O)cc2)c1NC(C)CCc1ccc2c(c1)OCO2 (centres unmarked) [Compound 1-232, {4′-[4-(3-Benzo[1,3]dioxol-5-yl-1-methyl-propylamino)-3-methyl-isoxazol-5-yl]-biphenyl-2-yl}-acetic acid]
31 | < 0.3 | Cc1noc(-c2ccc(-c3ccc(C4(CC(=O)O)CC4)cc3)cc2)c1NC(C)CCc1ccc2c(c1)OCO2 (centres unmarked) [Compound 1-233, (1-{4′-[4-(3-Benzo[1,3]dioxol-5-yl-1-methyl-propylamino)-3-methyl-isoxazol-5-yl]-biphenyl-4-yl}-cyclopropyl)-acetic acid]
32 | 1 to 50 | COc1ccc(CC(C)Nc2c(C)noc2-c2ccc(-c3ccccc3CC(=O)O)cc2)cc1 (centres unmarked) [Compound 1-238, (4′-{4-[2-(4-Methoxy-phenyl)-1-methyl-ethylamino]-3-methyl-isoxazol-5-yl}-biphenyl-2-yl)-acetic acid]
